Values joined by “and” are separate entries in the source; they are usually repeats but may differ in a detail not shown here. Equal entries are not always repeated. Where two headings read alike, the source gives them in different places.
Experiments:
[1] = system: LPS-induced acute lung injury (ALI); assay: Mouse model of LPS-induced ALI, BALF cell count and BALF protein; assay type: in vivo; settings: dexamethasone 5 mg/kg IP at T=0 and 6, positive control in the experiments of the compound of that line; mean ± SEM
Method: LPS was instilled into the trachea of anesthetized mice. […] The efficacy endpoints were total cell counts and total protein in BALF. All studies were conducted using vehicle negative controls and dexamethasone (5 mg/kg IP at T=0 and 6) as a positive control. Data were analyzed by 1-way ANOVA followed by Tukey's multiple comparison test (GRAPHPAD PRISM® software, version 6.05). […] Reductions in BALF total protein were also observed. […]

[2] = Solubility of ARF6 prodrugs in various vehicles (Table 4); assay type: physicochemical
ARF6 = ARF6 (Homo sapiens, UniProt P62330); assay: ARF6 inhibition, biochemical fluorometric nucleotide exchange assay
ARF6, sequence (P62330 whole entry, species assumed): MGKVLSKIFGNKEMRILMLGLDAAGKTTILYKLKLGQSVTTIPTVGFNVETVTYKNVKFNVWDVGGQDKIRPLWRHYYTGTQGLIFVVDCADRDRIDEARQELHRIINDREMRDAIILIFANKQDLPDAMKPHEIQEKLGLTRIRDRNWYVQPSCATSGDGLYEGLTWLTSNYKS
Description: These ARF6 inhibitors were discovered using a high-throughput biochemical, fluorometric nucleotide exchange assay to screen 100,000 compounds from a commercially available compound library. Medicinal chemistry optimization efforts have also been conducted. In some embodiments, the clinical potential of the discovered small molecule ARF6 inhibitors can be limited by poor solubility. Accordingly, the synthesis and development of water soluble prodrugs of ARF6 inhibitors can be advantageous. […]

[3] = Solubility in water and PBS pH 7.4 (Tables 1 and 2); assay type: physicochemical
[4] = system: multidrug-resistant Pseudomonas aeruginosa (PA); assay: Multidrug-resistant Pseudomonas aeruginosa mouse model of pneumonia; assay type: in vivo; settings: NAV-AAR′ 38 and 64 mg/kg subcutaneous once daily for 6 days
Method: NAV-AAR′ is also active in a multidrug-resistant Pseudomonas aeruginosa (PA) mouse model of pneumonia. […] NAV-AAR′ was administered by subcutaneous injection once daily for 6 days. The antibiotic meropenem was ineffective against MDR PA in this model.

[5] = 20 mM Na citrate buffer, pH 3.1, aqueous buffer, kinetic from dmso stock, diluted from 10 mM solution in DMSO, read-out: Solubility (μM) 20 mM Na Citrate, pH 3.1
[6] = water, kinetic from dmso stock, diluted from 10 mM solution in DMSO, read-out: Solubility (μM) H2O
[7] = Table 2, water, read-out: Solubility Water
[8] = Table 1, water, read-out: Solubility Water
[9] = aqueous buffer, Table 1, PBS pH 7.4, read-out: Solubility PBS pH 7.4

IC50 (ARF6; Table 1, read-out: ARF6 IC50) [µM]	solubility [3, 8]	solubility [3, 9] [µM]	Structure (SMILES)	further results
			C[C@@H]1C[C@H]2[C@@H]3CCC4=CC(=O)C=C[C@]4(C)[C@@]3(F)[C@@H](O)C[C@]2(C)[C@@]1(O)C(=O)CO [DEX, dexamethasone, reference compound]	percent reduction in LPS-induced increase in BALF cell count, DEX [1]: 64 ± 9% and 74 ± 5% and 63 ± 4% and 59 ± 5% and 70 ± 7%
			NCC(=O)Oc1cc([N+](=O)[O-])ccc1-c1cc(=O)[nH]c2c(-c3ccc(Cl)cc3)c(Cc3ccccc3)nn12.O=C(O)C(F)(F)F [Example III, [2-[2-Benzyl-3-(4-chlorophenyl)-5-oxo-4H-pyrazolo[1,5-a]pyrimidin-7-yl]-5-nitro-phenyl] 2-aminoacetate trifluoroacetate]	solubility [2, 5]: 325 µM; solubility [2, 6]: 375 µM
			C[C@H](N)C(=O)Oc1cc([N+](=O)[O-])ccc1-c1cc(=O)[nH]c2c(-c3ccc(Cl)cc3)c(Cc3ccccc3)nn12.O=C(O)C(F)(F)F [Example V, [2-[2-Benzyl-3-(4-chlorophenyl)-5-oxo-4H-pyrazolo[1,5-a]pyrimidin-7-yl]-5-nitro-phenyl] (2S)-2-aminopropanoate trifluoroacetate]	IC50 (ARF6; Table 4, read-out: ARF6 inhibition IC50): 1.9 µM; solubility [2, 5]: 160 µM; solubility ([2]; 0.1% Tween 80 in D5W, aqueous with cosolvent or surfactant or cyclodextrin, kinetic from dmso stock, diluted from 10 mM solution in DMSO, read-out: Solubility (μM) 0.1% Tween 80 in D5W): 5.4 µM; solubility ([2]; DPBS, pH 7.4, aqueous buffer, kinetic from dmso stock, diluted from 10 mM solution in DMSO, read-out: Solubility (μM) DPBS, pH 7.4): < 1 µM; solubility ([2]; saline or isotonic, thermodynamic from solid, D5W, prepared from powder, read-out: Solubility (μM) D5W Prepared from powder): 20 µM; solubility [2, 6]: 150 µM
			Cc1ccc(-c2c[nH]c3c(-c4ccc(Cl)cc4)c(Cc4ccccc4)nn3c2=O)c(O)c1 [NAV-AAC′]	IC50 (ARF6; Table 2, read-out: ARF6 IC50): 3.3 µM; solubility [3, 7]: < 1 mg/mL
2.9	300 µM	< 1	N#Cc1ccc(-c2cc(=O)[nH]c3c(-c4ccc(Cl)cc4)c(Cc4ccccc4)nn23)c(OC(=O)[C@@H](N)CCCCN)c1 [NAV-AAD]	
3.3			NCCCC[C@H](N)C(=O)Oc1cc(F)ccc1-c1cc(=O)[nH]c2c(-c3ccc(Cl)cc3)c(Cc3ccccc3)nn12 [NAV-AAE]	
> 50			Cc1ccc(-c2cc(=O)[nH]c3c(-c4ccc(Cl)cc4)c(Cc4ccccc4)nn23)c(OC(=O)[C@@H](N)CCCCN)c1 [NAV-AAF]	
			O=c1c(-c2ccc(F)cc2OP(=O)([O-])[O-])c[nH]c2c(-c3ccc(Cl)cc3)c(Cc3ccccc3)nn12.[Na+].[Na+] [NAV-AAP′]	IC50 (ARF6; Table 2, read-out: ARF6 IC50): 9.2 µM; solubility [3, 7]: > 50 mg/mL
1.9	> 500 µM	19	N#Cc1ccc(-c2cc(=O)[nH]c3c(-c4ccc(Cl)c(Cl)c4)c(C(F)(F)F)nn23)c(OC(=O)[C@@H](N)CCCCN)c1 [NAV-AA]	
2.4	500 µM	< 1	N#Cc1ccc(-c2cc(=O)[nH]c3c(-c4ccc(Cl)c(Cl)c4)c(C4CC4)nn23)c(OC(=O)[C@@H](N)CCCCN)c1 [NAV-AB]	
2.4	< 1 µM	< 1	O=c1cc(-c2ccc(F)cc2O)n2nc(Cc3ccccc3)c(-c3ccc(Cl)cc3)c2[nH]1 [NAV-AD]	
1.9	1.1 µM	< 1	O=c1cc(-c2ccc(F)cc2O)n2nc(C3CC3)c(-c3ccc(Cl)c(Cl)c3)c2[nH]1 [NAV-AF]	
26	> 500 µM	435	NCCCC[C@H](N)C(=O)Oc1ccccc1-c1cc(=O)[nH]c2c(-c3ccc(Cl)c(Cl)c3)c(C(F)(F)F)nn12 [NAV-AG]	
1.6	< 1 µM	30	O=c1cc(-c2ccc(F)cc2O)n2nc(C(F)(F)F)c(-c3ccc(Cl)c(Cl)c3)c2[nH]1 [NAV-AW]	
6.2	4.5 µM	70	O=c1cc(-c2ccc(F)cc2O)n2nc(C(F)(F)F)c(-c3ccc(Cl)cc3)c2[nH]1 [NAV-AY]	
7.2	9.2 µM	1.4	O=c1cc(-c2ccccc2O)n2nc(Cc3ccccc3)c(-c3ccc(Cl)cc3)c2[nH]1 [NAV-C]	
11	< 1 µM	< 1	O=c1cc(-c2ccc(Cl)cc2O)n2nc(Cc3ccccc3)c(-c3ccc(Cl)cc3)c2[nH]1 [NAV-D]	
12	< 1 µM	68	O=c1cc(-c2ccccc2O)n2nc(C(F)(F)F)c(C3CCCCC3)c2[nH]1 [NAV-E]	
4.9	< 1 µM	21	O=c1cc(-c2ccc(Cl)cc2O)n2nc(C(F)(F)F)c(C3CCCCC3)c2[nH]1 [NAV-F]	

IC50 (ARF6; Table 1, read-out: ARF6 IC50) [µM]	solubility [3, 8]	solubility [3, 9] [µM]	Structure (SMILES)	further results
> 50	56 µM	82	O=c1cc(-c2ccccc2O)n2nc(CN3CCOCC3)c(-c3ccc(Cl)cc3)c2[nH]1 [NAV-G]	
30	7 µM	13	O=c1cc(-c2ccc(Cl)cc2O)n2nc(CN3CCOCC3)c(-c3ccc(Cl)cc3)c2[nH]1 [NAV-H]	
21	29 µM	1.8	O=c1cc(-c2ccccc2O)n2nc(C3CC3)c(-c3ccc(Cl)c(Cl)c3)c2[nH]1 [NAV-I]	
12	< 1 µM	< 1	O=c1cc(-c2ccc(Cl)cc2O)n2nc(C3CC3)c(-c3ccc(Cl)c(Cl)c3)c2[nH]1 [NAV-J]	
4.2	< 1 µM	43	O=c1cc(-c2ccc(Cl)cc2O)n2nc(C(F)(F)F)c(-c3ccc(Cl)cc3)c2[nH]1 [NAV-K]	
6.2	< 1 µM	20	O=c1cc(-c2ccc([N+](=O)[O-])cc2O)n2nc(C3CC3)c(-c3ccc(Cl)c(Cl)c3)c2[nH]1 [NAV-L]	
10	4 µM	43	O=c1cc(-c2ccccc2O)n2nc(C(F)(F)F)c(-c3ccc(Cl)cc3)c2[nH]1 [NAV-M]	
2.8	< 1 µM	38	O=c1cc(-c2ccccc2O)n2nc(C(F)(F)F)c(-c3ccc(Cl)c(Cl)c3)c2[nH]1 [NAV-O]	
1.4	5.75 µM	19.6	N#Cc1ccc(-c2cc(=O)[nH]c3c(-c4ccc(Cl)c(Cl)c4)c(C(F)(F)F)nn23)c(O)c1 [NAV-P]	
5.1	< 1 µM	11	N#Cc1ccc(-c2cc(=O)[nH]c3c(-c4ccc(Cl)cc4)c(C(F)(F)F)nn23)c(O)c1 [NAV-Q]	
1.9	< 1 µM	1.7	N#Cc1ccc(-c2cc(=O)[nH]c3c(-c4ccc(Cl)cc4)c(Cc4ccccc4)nn23)c(O)c1 [NAV-R]	
2	10.2 µM	14	N#Cc1ccc(-c2cc(=O)[nH]c3c(-c4ccc(Cl)c(Cl)c4)c(C4CC4)nn23)c(O)c1 [NAV-S]	
2.3	13 µM	11	O=c1cc(-c2ccc(C(F)(F)F)cc2O)n2nc(C(F)(F)F)c(-c3ccc(Cl)c(Cl)c3)c2[nH]1 [NAV-T]	
6.7	20 µM	14	O=c1cc(-c2ccc(C(F)(F)F)cc2O)n2nc(Cc3ccccc3)c(-c3ccc(Cl)cc3)c2[nH]1 [NAV-U]	
3.2	30 µM	6	O=c1cc(-c2ccc(C(F)(F)F)cc2O)n2nc(C3CC3)c(-c3ccc(Cl)c(Cl)c3)c2[nH]1 [NAV-V]	
30	438 µM	144	NCCCC[C@H](N)C(=O)Oc1ccccc1-c1cc(=O)[nH]c2c(-c3ccc(Cl)cc3)c(Cc3ccccc3)nn12 [NAV-Y]	
4.25	450 µM	22	NCCCC[C@H](N)C(=O)Oc1cc(Cl)ccc1-c1cc(=O)[nH]c2c(-c3ccc(Cl)cc3)c(C(F)(F)F)nn12 [NAV-Z]	
			C[C@@H](O)[C@H]1C(=O)N2C(C(=O)O)=C(S[C@@H]3CN[C@H](C(=O)N(C)C)C3)[C@H](C)[C@H]12 [meropenem, reference compound]	survival in MDR PA pneumonia [4]: ineffective

Structure (SMILES)	IC50 (ARF6; Table 1, read-out: ARF6 IC50) [µM]	solubility [3, 8]	solubility [3, 9] [µM]	further results
O=c1cc(-c2ccc(F)cc2OP(=O)(O)O)n2nc(Cc3ccccc3)c(-c3ccc(Cl)cc3)c2[nH]1 [NAV-AAP]	9.2			
Cc1ccc(-c2cc(=O)[nH]c3c(-c4ccc(Cl)cc4)c(Cc4ccccc4)nn23)c(OP(=O)(O)O)c1 [NAV-AAQ]	4.6	> 50 mg/mL		
Cc1ccc(-c2cc(=O)[nH]c3c(-c4ccc(Cl)cc4)c(Cc4ccccc4)nn23)c(OP(=O)([O-])[O-])c1.[Na+].[Na+] [NAV-AAR]		> 50 mg/mL		

Source: patent US11414442B2, “ARF6 inhibitors and related methods” (Navigen, Inc., priority 2017, dated 2022)
